Legend:
[1] = tested on: CoCSC-derived culture (TGFBR2-mutant tumour organoids of a Stage IV CRC patient); test: in vitro growth of CoCSC-derived tumour organoid culture; format: cell-based, human; details: both TGFBR2 alleles inactivated, data not shown
Excerpt: The purification of Colon Cancer CoCSCs from CRC biopsies is described elsewhere (Merlos-Suarez et al., 2011, Cell Stem Cell 8, 511-524). We isolated CoCSCs from the primary tumour of a Stage IV CRC patient and cultured them as epithelial tumour organoids as described in (Jung et al., 2011; Nat Med 17, 1225-1227; Sato et al., 2011; Gastroenterology 141, 1762-1772). […] When injected in immunodeficient mice, they generated tumours with abundant p-SMAD2+ stromal cells, implying that this primary CoCSCs elicited a TGF-beta response in the tumour microenvironment (data not shown).

[2] = tested on: TGF-beta signalling (p-SMAD2); test: TGF-beta signalling and target gene mRNA in pre-established xenografts; format: in vivo, mice; details: tenfold higher dosed treatment for 3 days
Excerpt: The TGF-beta receptor I kinase antagonist, LY2157299, developed by Eli Lilly (Beight, 2004, Eli Lilly and Co. PCT Int. Appl. In PCT Int. Appl. WO2004048382A1; Bueno et al., 2008; Eur J Cancer 44, 142-150) was synthesized following the procedure described (Mundla, 2007; Eli Lilly and Company. PCT Int. Appl. WO2007018818A1. In, (USA)). TGF-beta receptor type I inhibitor LY2157299 was suspended in a formulation (vehicle) composed of 1% sodium carboxy methylcellulose (NaCMC), 0.4% sodium lauryl sulfate (SLS), 0.05% anti-foam and 0.085% polyvinylpyrrolidone (PVP) in a concentration of 6.67 mg mL^−1. Mice were dosed twice a day with 2 mg in 300 μL (2 mg) per os. starting 3 days before CRC cell lines inoculation. A tenfold higher dosed treatment for 3 days was used to show TGF-beta signalling (p-SMAD2) and target gene mRNA downregulation in pre-established xenografts.

[3] = tested on: colon cancer stem cells derived from a stage IV patient; test: liver metastasis after intrasplenic inoculation of CoCSCs, bioluminescence; format: in vivo, NSG mice
Excerpt: (§1) A. Kaplan Meier curves show tumour free survival over time for mice injected subcutaneously with colon cancer stem cells derived from a stage IV patient, treated or not with a TGF beta inhibitor (LY2157299). Mice received LY2157299 or vehicle from three days prior to inoculation until sacrifice (n=12) B. Bioluminescence over time after intrasplenic inoculation of 5×10^5 colon cancer stem cells derived from a stage IV patient in NSG mice treated as in A. Intensities were normalized to day 0 and arbitrarily set to 100. Values are mean±SEM (*: p<0.05).
All experiments with mouse models were approved by the animal care and use committee of the Barcelona Science Park (CEEA-PCB) and the Catalan Government. Cells were injected subcutaneously in 5 to 6 weeks old Swiss nude or NSG mice, (Jackson Labs), which were followed for the periods described. Tumour appearance was assessed by palpation. […]
Mice were anaesthetized, injected retro-orbitally with D-luciferin (Promega) and imaged for luciferase activity as previously described (Minn et al., 2005; J Clin Invest 115, 44-55). Luciferase activity measured immediately after cell injection was used to exclude any mice that were not successfully xenografted and to normalize bioluminescence. […]

[4] = tested on: colon cancer stem cells derived from a stage IV patient; test: subcutaneous tumour formation by primary CoCSC-derived cells in mice; format: in vivo; details: 2 mg twice a day per os, from three days prior to inoculation until sacrifice; FIG. 12A
Excerpt: as §1
All experiments with mouse models were approved by the animal care and use committee of the Barcelona Science Park (CEEA-PCB) and the Catalan Government. Cells were injected subcutaneously in 5 to 6 weeks old Swiss nude or NSG mice, (Jackson Labs), which were followed for the periods described. Tumour appearance was assessed by palpation. Five to six weeks old Balb/c nude or NSG mice (Jackson Labs) were used to perform metastasis experiments by intra-splenic injection (Warren et al., 1995, J. Clin. Invest. 95, 1789-1797) […]

Molecule	in vitro growth rates, morphology or organoid forming activity [1]	TGF-beta signalling (p-SMAD2) and target gene mRNA [2]	number of cells that engrafted the liver immediately after inoculation ([3]; kinetics of metastatic colonization, FIG. 12B inset)	formation of liver metastasis by CoCSCs inoculated via the spleen ([3]; same regime, 5×10^5 cells intrasplenic, NSG mice, FIG. 12B)	formation of subcutaneous tumours (tumour free survival) [4]
active TGF-beta: active TGF-beta added to the CoCSC-derived culture	did not modify				
Cc1cccc(-c2nn3c(c2-c2ccnc4ccc(C(N)=O)cc24)CCC3)n1 [LY2157299, 2-(6-methyl-pyridin-2-yl)-3-[6-amido-quinolin-4-yl)-5,6-dihydro-4H-pyrrolo[1,2-b]pyrazole]	did not modify	downregulation	reduced the number of cells that engrafted the liver	reduced formation of liver metastasis	conferred resistance to the formation of subcutaneous tumours
